“Also recorded” adds a separate entry of the source.
Key:
[1] = system: α-synuclein; test: α-synuclein degradation assay in transfected COS-7 cells (quantitative Western blotting); format: cell-based
Source text: Plasmids: C220S cDNA was generated by PCR site-specific mutagenesis. For the PCR, the 5′ primer is uchforw SEQ ID NO: 1 ([…]), and 3′ primer is uchc220s SEQ ID NO:2 (CTAAGA […]). Wt UCH-L1 served as the template. The PCR fragment was inserted into pcDNA vector. For S18YC220S mutant, S18Y UCH-L1 served as the template in PCR. For the FLAG tagged UCH-L1, the 5′ primer is FLAGuchforw SEQ ID NO: 3 ([…] CGATGGAG), and the 3′ primer is uchrev SEQ ID NO: 4 ([…]). Wt UCH-L1 or C220S served as the template. PCR fragment was purified and inserted into pcDNA vector. For the FLAG tagged UCH-L3, the 5′ primer is L3HindIII SEQ ID NO: 5 (CTAAAGCTTATGGACTAC […]), the 3′primer is L3XhoISAA SEQ ID NO: 6 ([…]). […] After 24 hours of incubation, the cells were lysed with Tris buffer (50 mM Tris, 2% SDS, 0.1% NP-40), and subjected to SDS-PAGE, followed by quantitative Western blotting.
(§1) Western Blotting: Following transfer of SDS gels onto NC membrane, all membranes were blocked with 5% non-fat milk in TBST (50 mM Tris-HCl pH7.4, 150 mM NaCl, 0.1% Tween 20), and incubated with primary antibody overnight with 1% BSA in TBST, washed three times with TBST, and incubated with horseradish peroxidase-conjugated secondary antibody for 1 hour (Promega). Bound antibodies were detected using enhanced chemiluminascence (NEM). […]

[2] = system: UCH-L1; test: Total amount and turnover of UCH-L1 in SH-SY5Y cells (pulse-chase); format: cell-based
[3] = system: α-synuclein; test: α-synuclein accumulation in SH-SY5Y cells infected with α-synuclein-expressing adenovirus (Western blotting, normalized against actin); format: cell-based
Experimental: Western Blotting: Following transfer of SDS gels onto NC membrane, all membranes were blocked with 5% non-fat milk in TBST (50 mM Tris-HCl pH7.4, 150 mM NaCl, 0.1% Tween 20), and incubated with primary antibody overnight with 1% BSA in TBST, washed three times with TBST, and incubated with horseradish peroxidase-conjugated secondary antibody for 1 hour (Promega). Bound antibodies were detected using enhanced chemiluminascence (NEM).
Since α-synuclein neurotoxicity is dose-dependent, it follows that accumulation of α-synuclein, caused by UCH-L1 farnesylation, should promote its toxicity. […] These cells express high endogenous levels of UCH-L1. […] The unit of y-axis is 10^5 /ml. (F) Cell viability was assessed by the amount of metabolic activity using MTT assay. […] The effect of FTI-277 on the α-synuclein accumulation in the SH-SY5Y infected with α-synuclein-expressing adenovirus were analyzed by Western blotting (B) and the amount of α-synuclein (C) was quantified using NIH Image program and normalized against the amount of actin.

[4] = system: primary dopaminergic cultures; test: α-synuclein toxicity in primary dopaminergic cultures; format: cell-based
[5] = system: SH-SY5Y cells overexpressing α-synuclein; test: α-synuclein toxicity in SH-SY5Y cells infected by α-synuclein-expressing adenovirus (Trypan blue viable cell counting, MTT assay); format: cell-based
Experimental: Viral Infection: Viral infection and MTT assay in SH-SY5Y cells: The viruses were amplified and purified according to the published procedure. SH-SY5Y cells were grown on 100 mm petri-dishes and induced with 100 nM retinoic acid for 3-5 days before the virus infection with M.I.O at 75. Viruses were diluted with DPBS to desired M.I.O. After four hours of incubation, 10 ml growth medium was added. On the second day, cells were splitted into 96-well plates and treated with compounds for next 48 hours. The growth medium in each well was replaced with growth medium with 5 ug/ml MTT. Medium was removed after three hours incubation, and 200 ul isopropyl (0.04N HCl) was added into each well. The signal was read at 570 nm.
Viable cell counting: At stated time poins, SH-SY5Y cells were trypsinized with 100 ul trypsin-EDTA for 1 minute and neutralized with 400 ul growth medium. Cell suspension was made up by mixing 0.2 ml of cells in growth medium, 0.3 ml of HBSS and 0.5 ml of 0.4% Trypan Blue solution. Viable cell numbers were counted by standard cell counting chamber.
Since α-synuclein neurotoxicity is dose-dependent, it follows that accumulation of α-synuclein, caused by UCH-L1 farnesylation, should promote its toxicity. […] These cells express high endogenous levels of UCH-L1. […] The unit of y-axis is 10^5 /ml. (F) Cell viability was assessed by the amount of metabolic activity using MTT assay. […]

[6] = system: UCH-L1; test: Membrane bound and cytosolic UCH-L1 in SH-SY5Y cells (2D electrophoresis, Western blotting); format: cell-based; settings: compared to DMSO
Experimental: 2D electrophoresis: For the isolation of total cellular protein, cultured SH-SY5Y cells maintained as described above were rinsed with ice-cold PBS. Cells were lysed in 1 ml dSDS buffer (50 mM Tris-HCl, pH 8.0 0.1% SDS) supplemented with protease inhibitor cocktail. Lysates were boiled for 3 min, and were treated with Dnase and Rnase as described. Lysates were precipitated with ice-cold acetone for at least 2 hours, and pellets were resuspended in 2D sample buffer (8M urea, 0.5% CHAPS, 0.2% DTT, 0.5% IPG buffer, 0.002% bromophenol blue). 2D electrophoresis was carried out according to manufacture's protocol (Amersham Life Science). 7 cm pH 4-7 strips were used. For SH-SY5Y membrane fraction, culture SH-SY5Y cells were rinsed with cold PBS and harvested with lysis buffer (50 mM Tris-HCl, pH 8.0, 1 mM ZnAc2, 250 mM sucrose). Lysate was passed through 25G needles for several times and spun at 1000 g for 5 min. […]
as §1

[7] = system: Neuronal Specific Nuclear Protein (NeuN); test: NeuN staining of cortex and hippocampus of α-synuclein transgenic mice; format: in vivo; settings: 90 days of treatment
Experimental: (§2) Farnesyl transferase inhibitors Zarnestra and OSI-754 were administered to mice of the α-synuclein transgenic line described in Masliah et al. (Masliah et al. “Dopaminergic loss and inclusion body formation in alpha-synuclein mice: implications for neurodegenerative disorders” Science 287(5456):1265-69, 2000; incorporated herein by reference). Animals from this line have α-synuclein neuronal inclusions in the cortex, hippocampus, and the olfactory bulb (Masliah et al. “Dopaminergic loss and inclusion body formation in alpha-synuclein mice: implications for neurodegenerative disorders” Science 287(5456):1265-69, 2000; incorporated herein by reference). Transgenic mice were orally administered either FTI in 20% cyclodextrin solution or the same volume of vehicle alone twice a day for 30 or 90 days. In some cases, non-transgenic mice also received vehicle twice a day for 30 to 90 days. At the end of treatment, mice were sacrificed, and the brains removed and hemisected. One hemisphere of each was fixed in 4% paraformaldehyde/PBS (pH 7.4), cryoperserved, then sectioned for histology. […]
Formation of α-synucleininclusions in the cortex and hippocampus was probed by immunostaining with an antibody for human α-synuclein. Cells positive for human α-synuclein were quantified. […]

[8] = system: α-synuclein; test: Immunostaining for human α-synuclein in brain sections of α-synuclein transgenic mice; format: in vivo; settings: vs vehicle
Experimental: (§3) Farnesyl transferase inhibitors Zarnestra and OSI-754 were administered to mice of the α-synuclein transgenic line described in Masliah et al. (Masliah et al. “Dopaminergic loss and inclusion body formation in alpha-synuclein mice: implications for neurodegenerative disorders” Science 287(5456):1265-69, 2000; incorporated herein by reference). Animals from this line have α-synuclein neuronal inclusions in the cortex, hippocampus, and the olfactory bulb (Masliah et al. “Dopaminergic loss and inclusion body formation in alpha-synuclein mice: implications for neurodegenerative disorders” Science 287(5456):1265-69, 2000; incorporated herein by reference). Transgenic mice were orally administered either FTI in 20% cyclodextrin solution or the same volume of vehicle alone twice a day for 30 or 90 days. In some cases, non-transgenic mice also received vehicle twice a day for 30 to 90 days. At the end of treatment, mice were sacrificed, and the brains removed and hemisected. One hemisphere of each was fixed in 4% paraformaldehyde/PBS (pH 7.4), cryoperserved, then sectioned for histology. The other hemisphere was subdivided into four brain regions, including the cortex and hippocampus, that were homogenized and processed into cytoplasmic and membrane fractions.
Formation of α-synuclein inclusions in the cortex and hippocampus was probed by immunostaining with an antibody for human α-synuclein. Cells positive for human α-synuclein were quantified. […] These regions were also analyzed for ubiquitin-immunoreactive inclusions and by the Campbell Switzer method of silver staining. Ubiquitin is known to be a constituent of Lewy Bodies and in the α-synculein inclusions found in the transgenic mouse line used in the study (Masliah et al. “Dopaminergic loss and inclusion body formation in alpha-synuclein mice: implications for neurodegenerative disorders” Science 287(5456):1265-69, 2000; incorporated herein by reference). […] Campbell-Switzer staining is a general marker of Lewy Body type inclusions (Uchihara et al. “Silver stainings distinguish Lewy bodies and glial cytoplasmic inclusions: comparison between Gallyas-Braak and Campbell-Switzer methods” Acta Neuropathol. (Berl.) 110(3):255-60, 2005; incorporated herein by reference).

[9] = system: farnesylated UCH-L1; test: Quantitative Western Blot of farnesylated UCH-L1 in cortex membrane fraction of α-synuclein transgenic mice; format: in vivo; settings: 30 days
Experimental: as §2
Farnesylated UCH-L1 in the cortex is contained in the membrane fraction. The amount of UCH-L1 was determined by quantitative Western Blot.
Total α-synuclein levels were analyzed by a sandwich ELISA assay. […] The amount of farnesylated UCH-L1 was determined by quantitative Western Blot, then normalized to actin.

[10] = system: α-synuclein; test: Sandwich ELISA of total α-synuclein in brain fractions of α-synuclein transgenic mice; format: in vivo
Experimental: as §3
Total α-synuclein levels were analyzed by a sandwich ELISA assay similar to one previously described (El-Agnaf et al. “Detection of oligomeric forms of alpha-synuclein protein in human plasma as a potential biomarker for Parkinson's disease” FASEB J. 20(3):419-25, 2006; incorporated herein by reference). In the cortex of vehicle treated animals, α-synuclein protein levels in the α-synuclein transgenic line are greater than in non-transgenic mice in both cytoplasmic (FIG. 10) and membrane fractions (FIG. 11).

[11] = system: Lewy body-like inclusions; test: Campbell Switzer silver staining of Lewy body-like inclusions in α-synuclein transgenic mice; format: in vivo; settings: 35 mg/kg twice a day, 30 days; vs vehicle
Experimental: (§4) Farnesyl transferase inhibitors Zarnestra and OSI-754 were administered to mice of the α-synuclein transgenic line described in Masliah et al. (Masliah et al. “Dopaminergic loss and inclusion body formation in alpha-synuclein mice: implications for neurodegenerative disorders” Science 287(5456):1265-69, 2000; incorporated herein by reference). Animals from this line have α-synuclein neuronal inclusions in the cortex, hippocampus, and the olfactory bulb (Masliah et al. “Dopaminergic loss and inclusion body formation in alpha-synuclein mice: implications for neurodegenerative disorders” Science 287(5456):1265-69, 2000; incorporated herein by reference). Transgenic mice were orally administered either FTI in 20% cyclodextrin solution or the same volume of vehicle alone twice a day for 30 or 90 days. In some cases, non-transgenic mice also received vehicle twice a day for 30 to 90 days. At the end of treatment, mice were sacrificed, and the brains removed and hemisected. […]
(§5) Formation of α-synuclein inclusions in the cortex and hippocampus was probed by immunostaining with an antibody for human α-synuclein. Cells positive for human α-synuclein were quantified. […] These regions were also analyzed for ubiquitin-immunoreactive inclusions and by the Campbell Switzer method of silver staining. […]

[12] = system: ubiquitin-immunoreactive inclusions; test: Ubiquitin immunohistochemistry in brain of α-synuclein transgenic mice; format: in vivo; settings: 35 mg/kg twice a day, 30 days; vs vehicle
Experimental: as §4, §5

[13] = cortex, 45 mg/kg twice a day, 30 days, vs vehicle
[14] = cortex, 35 mg/kg twice a day, 30 days, vs vehicle-treated transgenic mice

COC(=O)[C@H](CCSC)NC(=O)c1ccc(NC[C@@H](N)CS)cc1-c1ccccc1 [FTI-277]
synuclein level ([1]; COS-7 cells): lowers synuclein level | total amount of UCH-L1 [2]: reduced the total amount of UCH-L1 | rate of turnover of UCH-L1 ([2]; pulse-chase experiment not shown): increased its rate of turnover | amount of α-synuclein [3]: reducing the amount of α-synuclein accumulation; also recorded: reduced the amount of α-synuclein | α-synuclein toxicity [4]: inhibit α-synuclein toxicity | neuroprotective effect of FTI-277 on co-administration of the small-molecule UCH-L1 inhibitor ([5]; SH-SY5Y cells infected with α-synuclein adenovirus, data not shown): eliminated | α-synuclein toxicity / loss of cells ([5]; neuronally differentiated SH-SY5Y cells infected with α-synuclein adenovirus): inhibits synuclein toxicity; also recorded: rescued α-synuclein toxicity; also recorded: significantly decreased loss of cells | amount of cytosolic UCH-L1 [6]: without affecting | amount of membrane bound UCH-L1 [6]: significant decrease; also recorded: decreased the amount of the membrane-associated species

C#Cc1cccc(-c2cc(=O)n(C)c3ccc(C(O)(c4ccc(Cl)cc4)c4cncn4C)cc23)c1 (stereo not drawn) [OSI-754]
neuronal morphology or density (NeuN staining) [7]: did not affect neuronal morphology or density | α-synuclein-positive cells per mm^2 ([8]; cortex, 9 mg/kg twice a day, 90 days): fewer | α-synuclein-positive cells per mm^2 ([8]; cortex, 45 mg/kg twice a day, 90 days): fewer | α-synuclein-positive cells per mm^2 ([8]; hippocampus, 9 mg/kg twice a day, 90 days): fewer | α-synuclein-positive cells per mm^2 ([8]; hippocampus, 45 mg/kg twice a day, 90 days): fewer | amount of farnesylated UCH-L1, normalized to actin ([9]; 45 mg/kg twice a day): decreased the amount of farnesylated UCH-L1 | α-synuclein protein levels, cytoplasmic fraction ([10]; cortex, 9 mg/kg twice a day, 90 days, vs vehicle): lower α-synuclein protein levels | α-synuclein protein levels, cytoplasmic fraction [10, 13]: lower α-synuclein protein levels | α-synuclein protein levels, membrane fraction [10, 13]: lower α-synuclein protein levels | α-synuclein protein levels, cytoplasmic fraction ([10]; cortex, 45 mg/kg twice a day, 90 days, vs vehicle): lower α-synuclein protein levels | α-synuclein protein levels, membrane fraction ([10]; hippocampus, 9 mg/kg twice a day, 90 days, vs vehicle): lower α-synuclein protein levels | α-synuclein protein levels, membrane fraction ([10]; hippocampus, 45 mg/kg twice a day, 90 days, vs vehicle): lower α-synuclein protein levels

Cn1cncc1C(N)(c1ccc(Cl)cc1)c1ccc2c(c1)c(-c1cccc(Cl)c1)cc(=O)n2C (stereo not drawn) [Zarnestra]
inclusions by Campbell-Switzer staining [11]: fewer inclusions | α-synuclein-positive cells per mm^2 ([8]; cortex, 35 mg/kg twice a day orally, 30 days): significantly fewer | α-synuclein-positive cells per mm^2 ([8]; hippocampus, 35 mg/kg twice a day orally, 30 days): significantly fewer | ubiquitin-immunoreactive inclusions [12]: fewer ubiquitin-immunoreactive inclusions | amount of farnesylated UCH-L1 ([9]; 35 mg/kg twice a day, 35 mg/kg): decreased; also recorded: decreased the amount of farnesylated UCH-L1 in transgenic mice to levels similar to non-transgenic mice | levels of α-synuclein protein in the cortex ([10]; 35 mg/kg twice a day, 30 days): decreased levels of α-synuclein protein | α-synuclein protein levels, cytoplasmic fraction [10, 14]: lower α-synuclein protein levels | α-synuclein protein levels, membrane fraction [10, 14]: lower α-synuclein protein levels

CC(=O)N[C@@H](CSC(=O)[C@]1([C@@H](O)C(C)C)NC(=O)[C@H](C)[C@@H]1O)C(=O)O [lactacystin]
accumulation of α-synuclein (16 KDa, normalized against actin) ([1]; transfected COS-7 cells, 35 μM lactacystin, 24 hours): 100%
